Laboratory results from patent publication US20130288895A1, “METHODS AND COMPOSITIONS FOR WEED CONTROL” (priority 2011, published 2013).

B1: CP4-12: dsRNA trigger, 82-462 of SEQ ID NO:1 (CP4 EPSPS), a 381 polynucleotide (nucleic acid, listed as Agrobacterium tumefaciens)
DNA: ATCTCCCACCGGTCCTTCATGTTCGGCGGTCTCGCGAGCGGTGAAACGCGCATCACCGGCCTTCTGGAAGGCGAGGACGTCATCAATACGGGCAAGGCCATGCAGGCCATGGGCGCCAGGATCCGTAAGGAAGGCGACACCTGGATCATCGATGGCGTCGGCAATGGCGGCCTCCTGGCGCCTGAGGCGCCGCTCGATTTCGGCAATGCCGCCACGGGCTGCCGCCTGACCATGGGCCTCGTCGGGGTCTACGATTTCGACAGCACCTTCATCGGCGACGCCTCGCTCACAAAGCGCCCGATGGGCCGCGTGTTGAACCCGCTGCGCGAAATGGGCGTGCAGGTGAAATCGGAAGACGGTGACCGTCTTCCCGTTACCTTG
modifications: dsRNA form
B2: CP4-34: dsRNA trigger, 594-1043 of SEQ ID NO:1 (CP4 EPSPS), a 450 polynucleotide (nucleic acid, listed as Agrobacterium tumefaciens)
DNA: CGATCATACGGAAAAGATGCTGCAGGGCTTTGGCGCCAACCTTACCGTCGAGACGGATGCGGACGGCGTGCGCACCATCCGCCTGGAAGGCCGCGGCAAGCTCACCGGCCAAGTCATCGACGTGCCGGGCGACCCGTCCTCGACGGCCTTCCCGCTGGTTGCGGCCCTGCTTGTTCCGGGCTCCGACGTCACCATCCTCAACGTGCTGATGAACCCCACCCGCACCGGCCTCATCCTGACGCTGCAGGAAATGGGCGCCGACATCGAAGTCATCAACCCGCGCCTTGCCGGCGGCGAAGACGTGGCGGACCTGCGCGTTCGCTCCTCCACGCTGAAGGGCGTCACGGTGCCGGAAGACCGCGCGCCTTCGATGATCGACGAATATCCGATTCTCGCTGTCGCCGCCGCCTTCGCGGAAGGGGCGACCGTGATGAACGGTCTGGAAGAACT
modifications: dsRNA form

Tested on: A. palmeri (R-22)
Assay: Greenhouse test: 2,4-D, glyphosate and trigger polynucleotides
Type: in vivo
Details: 2,4-D 0.0625 lb/A; RU Wmax 1.5 lb/A where included; 14 days after treatment

Molecule | % Control (mean) [%]
CNC.O=C(O)COc1ccc(Cl)cc1Cl [2,4-D, 2,4D amine (dimethylamine salt)] | 60

Same assay, conditions: 2,4-D 0.125 lb/A; RU Wmax 1.5 lb/A where included; 14 days after treatment

Molecule | % Control (mean) [%]
CNC.O=C(O)COc1ccc(Cl)cc1Cl [2,4-D, 2,4D amine (dimethylamine salt)] | 80.8

Tested on: Amaranthus palmeri plants (glyphosate-resistant Palmer amaranth, “R-22”)
Assay: Topical trigger oligonucleotide bioassay with glyphosate on Amaranthus palmeri
Type: in vivo
Parameters: key: relative measure of activity, the tested oligonucleotide was either active, less active, or inactive in the bioassay; relative measure of activity, the tested oligonucleotide was either active, less active, or inactive in the bioassay; relative measure of activity, the tested oligonucleotide was either active, less active, or inactive in the bioassay
Details: 5.2 triggers to A. palmeri EPSPS coding sequence; topical application with Silwet L-77, glyphosate; relative measure of activity

Molecule | Activity
AATGCCAGATGTTGCTATGAC (AATGCCAGATGTTGCTATGAC; antisense; DNA, backbone and methylation of C not given here; 5.2-DNA-wt is double-stranded DNA) [Oligo 5.2-ssDNA-S, ssDNA 21-mer, sense] | less active
ATA GCA ACA TCT GGC ATT [5.2-RNA-5′-18] | inactive
C ATA GCA ACA TCT GGC ATT [5.2-RNA-5′-19] | less active
GTCATAGCAACATCTGGCATT [5.2-DNA-wt] (GTCATAGCAACATCTGGCATT; DNA, backbone and methylation of C not given here; 5.2-DNA-wt is double-stranded DNA) [Oligo 5.2-DNA-wt, dsDNA 21-mer] | active
GTCATAGCAACATCTGGCATT [5.2-asDNA/sRNA] (GTCATAGCAACATCTGGCATT; chemistry not fully specified) [DNA/RNA hybrid 21-mer] | inactive
GTCATAGCAACATCTGGCATT [5.2-sDNA/asRNA] (GTCATAGCAACATCTGGCATT; RNA, backbone and T or U not given here; hybrid: sense DNA strand with antisense RNA strand) [DNA/RNA hybrid 21-mer] | inactive
GTCATAGCAACATCTGGCATT [5.2-ssDNA-AS] (GTCATAGCAACATCTGGCATT; antisense; DNA, backbone and methylation of C not given here; 5.2-DNA-wt is double-stranded DNA) [Oligo 5.2-ssDNA-AS, ssDNA 21-mer, antisense] | less active
GTCATAGCAACATCTGGCATT [Oligo 5.2-RNA-wt] | active
GTCATAGCAACATCTGGCATT-3′IdT [5.2-RNA-3′IdT] | inactive
GTCATAGCAACATCTGGCATT-3′ddC [5.2-RNA-3′ddC] | inactive
GTC Aat GCA ACA TCT GGC ATT [Oligo 5.2-RNA-M5] | active
TC ATA GCA ACA TCT GGC ATT [5.2-RNA-5′-20] | active

Same assay, conditions: AS83 made as ssDNA, dsRNA, dsDNA; making Palmer R-22 plant sensitive to glyphosate

Molecule | Activity
CTCTTTGTTTTTCTTCTGCCAATTT (CTCTTTGTTTTTCTTCTGCCAATTT; chemistry not fully specified) [AS83-DNA-blunt, dsDNA 25-mer] | active
CUCUUUGUUUUUCUUCUGCCAAUUU (CUCUUUGUUUUUCUUCUGCCAAUUU; RNA, backbone not given here; further chemistry not fully specified; listed as Amaranthus palmeri) [AS83-RNA-wt-] | active

Same assay, conditions: AS83 triggers to EPSPS promoter of glyphosate resistant A. palmeri; 3′/5′ deletions, mismatch mutations; relative measure of activity

Molecule | Activity
CTC TTT GTT TTT CTT CT (CTCTTTGTTTTTCTTCT; DNA, backbone and methylation of C not given here) [AS83-DNA-17-3′D, ssDNA 17-mer] | inactive
CTC TTT GTT TTT CTT CTG (CTCTTTGTTTTTCTTCTG; DNA, backbone and methylation of C not given here) [AS83-DNA-18-3′D, ssDNA 18-mer] | inactive
CTC TTT GTT TTT CTT CTG C (CTCTTTGTTTTTCTTCTGC; DNA, backbone and methylation of C not given here) [AS83-DNA-19-3′D, ssDNA 19-mer] | inactive
CTCTTTGTTTTTCTTCTGCC (CTCTTTGTTTTTCTTCTGCC; DNA, backbone and methylation of C not given here) [AS83-DNA-20-3′D, ssDNA 20-mer] | active
CTCTTTGTTTTTCTTCTGCCA (CTCTTTGTTTTTCTTCTGCCA; chemistry not given here) [AS83-DNA-21-3′D, ssDNA 21-mer] | active
CTCTTTGTTTTTCTTCTGCCAA (CTCTTTGTTTTTCTTCTGCCAA; chemistry not given here) [AS83-DNA-22-3′D, ssDNA 22-mer] | active
CTCTTTGTTTTTCTTCTGCCAAT (CTCTTTGTTTTTCTTCTGCCAAT; chemistry not given here) [AS83-DNA-23-3′D, ssDNA 23-mer] | active
CTCTTTGTTTTTCTTCTGCCAATT (CTCTTTGTTTTTCTTCTGCCAATT; chemistry not given here) [AS83-DNA-24-3′D, ssDNA 24-mer] | active
CTCTTTGTTTTTCTTCTGCCAATTT (antisense CTCTTTGTTTTTCTTCTGCCAATTT; DNA, backbone and methylation of C not given here; listed as Amaranthus palmeri) [AS83-DNA-25-wt] | active
CTCTTTGTTTTTCTTCTGCCAATTT-3′InvdT [AS83-DNA-3′InvdT] | inactive
CTCTTTGTTTTTCTTCTGCCAATTT-3′ddC [AS83-DNA-3′ddC] | inactive
CTTTGTTTTTCTTCTGCCAATTT (CTTTGTTTTTCTTCTGCCAATTT; chemistry not given here) [AS83-DNA-23-5′D, ssDNA 23-mer] | active
TCTTTGTTTTTCTTCTGCCAATTT (TCTTTGTTTTTCTTCTGCCAATTT; chemistry not given here) [AS83-DNA-24-5′D, ssDNA 24-mer] | active
TTG TTT TTC TTC TGC CA (TTGTTTTTCTTCTGCCA; DNA, backbone and methylation of C not given here) [AS83-DNA-17-5′D, ssDNA 17-mer] | inactive
TTG TTT TTC TTC TGC CAA (TTGTTTTTCTTCTGCCAA; DNA, backbone and methylation of C not given here) [AS83-DNA-18-5′D, ssDNA 18-mer] | inactive
TTG TTT TTC TTC TGC CAA T (TTGTTTTTCTTCTGCCAAT; DNA, backbone and methylation of C not given here) [AS83-DNA-19-5′D, ssDNA 19-mer] | less active
TTGTTTTTCTTCTGCCAATT (TTGTTTTTCTTCTGCCAATT; chemistry not given here) [AS83-DNA-20-5′D, ssDNA 20-mer] | active
TTGTTTTTCTTCTGCCAATTT (TTGTTTTTCTTCTGCCAATTT; chemistry not given here) [AS83-DNA-21-5′D, ssDNA 21-mer] | active
TTTGTTTTTCTTCTGCCAATTT (TTTGTTTTTCTTCTGCCAATTT; chemistry not given here) [AS83-DNA-22-5′D, ssDNA 22-mer] | active

Tested on: Corn plants transformed with the CP4 EPSPS gene
Assay: CP4 EPSPS dsRNA triggers plus RoundUp Ultra on transgenic glyphosate tolerant corn
Details: trigger 210, 630, 1890 pmol; RoundUp Ultra 1.5 a.e. lb/acre two-three days later; FIG. 2
Procedure: Corn and cotton plants that were transformed with the CP4 EPSPS gene and are resistant to glyphosate were planted in pots in a greenhouse along with negative isolines for each and grown to the first true leaf emergence stage then treated with a trigger solution containing 0.5% Silwet L77, 2% ammonium sulfate, 20 mM Na Phoshpate (pH 6.8) at different rates of trigger amount, 0 picomoles (pmol), 210 pmol, 630 pmol and 1890 pmol. For each replication (8-10 plants), two fully expanded cotyledons were treated by pipette with 50 microliters of trigger solution each, then sprayed two-three days later with 1.5 a.e.lb/acre) of RoundUp™ Ultra (glyphosate, Monsanto, St Louis, Mo.). The cotton and corn plants were scored for stunting and injury 7-16 days after spray treatment.

Molecule | glyphosate injury of corn plants
B1 | dead or damaged terminal leaves
B2 | dead or damaged terminal leaves
